Assay results published in patent US20120035855A1, “METHOD OF NETWORK-BASED IDENTIFICATION FOR DRUG ACTION AND/OR SYNERGY EFFECT OF MEDICINE COMBINATION” (TSINGHUA UNIVERSITY, priority 2008, published 2012).

Test system: Human Umbilical Vein Endothelial Cells (HUVECs)
Assay: Cell scratch experiment, inhibition of endothelial cell migration
Assay type: cell-based
Set-up: Ranking by experiment results: dose or concentration left out as unconfirmed
Conditions: single medicine; 9 h intervention; FIG. 4
Text: Experiment: cell scratch experiments were used to quantitively measure the inhibition of medicines on migration. […] Sterile operation had to be ensured during cell scrapping process. Human Umbilical Vein Endothelial Cells (HUVECs) available from Cascade Biologics (Portland, USA) were repeatably cultured with the supplier's criterions; Matrine, quercetin, emodin, evodiamine, genistein, and aconitine were purchased from National Institute for the Control of Pharmaceutical and Biological Products, and their experimental density were set at 10 mM as indicated by literature. HUVECs were cultured on 12-plate coated by 0.1% gelatin, the cells were inactivated after 2 hours under the conditions of 5% CO2, 37° C. and 10 ug/ml of Mitonycin C. Cell scraper about 1 mm in width was used to scrap on the fused surface of single-layer of cells. Standard endothelial cell growth medium (ECGM) free of medicine application was taken as control group. Pictures were taken at 6 h−10 h of medicine intervention by Nikon digital camera, with migration distance being scaled by configure software. The experiment was repeated five times. The […] ability of the medicines was measured by Migration Inhibition Rate, determined as:
Migration Inhibition Rate=(migration distance of control group−migration distance of experimental group)/migration distance of control group

In the case of `O=C1CCC[C@@H]2[C@H]3CCCN4CCC[C@@H](CN12)[C@@H]34` [Matrine], the “inhibition on endothelial cell migration (in words)” value is reported as “strongest inhibition”.

Same assay, conditions: single medicine; rank of migration inhibition among six medicines; 9 h

In order of falling “Ranking by experiment results” value:
1. CCN1C[C@]2(COC)[C@H](O)C[C@H](OC)[C@@]34[C@@H]5C[C@@]6(O)[C@H](OC(=O)c7ccccc7)[C@@H]5[C@@](OC(C)=O)([C@@H]([C@H](OC)[C@H]23)[C@@H]14)[C@@H](O)[C@@H]6OC [Aconitine]  6
2. O=c1c(-c2ccc(O)cc2)coc2cc(O)cc(O)c12 [Genistein]  5
3. Evodiamine  4
4. Cc1cc(O)c2c(c1)C(=O)c1cc(O)cc(O)c1C2=O [Emodin]  3
5. O=c1c(O)c(-c2ccc(O)c(O)c2)oc2cc(O)cc(O)c12 [Quercetin]  2
6. O=C1CCC[C@@H]2[C@H]3CCCN4CCC[C@@H](CN12)[C@@H]34 [Matrine]  1
